In PMC6264117, “Label-Free Time-Gated Luminescent Detection Method for the Nucleotides with Varying Phosphate Content” (Sensors (Basel, Switzerland), 2018) one finds IC50 data, which are given here for 1 compound.

The experiment deals with T1, K-Ras (Homo sapiens, UniProt P01116).
T1 construct: gene KRAS; res; 2-188; with SOS^cat (res. 564-1049); p120GAP (res. 714-1047) in the cycling assay
Description: Label-free Tb(III) luminescence GTPase cycling assay (Probe […]); confirmed by QRET and by SOS^cat nucleotide exchange assays (IC50 […]). The class given is biochemical.

T1 sequence (Q07889 564-1049): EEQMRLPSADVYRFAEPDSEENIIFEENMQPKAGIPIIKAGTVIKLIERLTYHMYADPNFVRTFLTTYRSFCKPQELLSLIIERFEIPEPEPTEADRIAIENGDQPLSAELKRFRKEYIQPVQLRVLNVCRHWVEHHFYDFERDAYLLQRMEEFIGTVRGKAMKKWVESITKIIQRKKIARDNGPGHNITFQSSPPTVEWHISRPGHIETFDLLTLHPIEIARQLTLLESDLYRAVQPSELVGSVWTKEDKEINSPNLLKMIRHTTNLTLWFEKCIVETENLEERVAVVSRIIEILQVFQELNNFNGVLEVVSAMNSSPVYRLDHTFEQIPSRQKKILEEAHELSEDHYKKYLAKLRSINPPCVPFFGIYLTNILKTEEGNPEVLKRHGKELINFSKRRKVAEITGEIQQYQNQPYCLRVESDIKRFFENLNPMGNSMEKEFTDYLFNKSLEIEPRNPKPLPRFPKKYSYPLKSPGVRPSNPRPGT
T1 sequence (P20936 714-1047, further chain): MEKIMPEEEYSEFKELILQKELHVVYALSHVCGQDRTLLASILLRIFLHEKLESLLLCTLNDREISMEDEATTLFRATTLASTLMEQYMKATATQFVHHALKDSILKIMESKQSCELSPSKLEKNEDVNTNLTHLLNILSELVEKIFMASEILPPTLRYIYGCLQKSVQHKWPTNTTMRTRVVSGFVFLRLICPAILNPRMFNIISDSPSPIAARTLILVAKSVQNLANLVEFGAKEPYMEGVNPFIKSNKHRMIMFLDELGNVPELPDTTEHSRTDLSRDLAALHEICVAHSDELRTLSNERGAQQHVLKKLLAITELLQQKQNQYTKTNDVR
T1 sequence (P01116 2-188): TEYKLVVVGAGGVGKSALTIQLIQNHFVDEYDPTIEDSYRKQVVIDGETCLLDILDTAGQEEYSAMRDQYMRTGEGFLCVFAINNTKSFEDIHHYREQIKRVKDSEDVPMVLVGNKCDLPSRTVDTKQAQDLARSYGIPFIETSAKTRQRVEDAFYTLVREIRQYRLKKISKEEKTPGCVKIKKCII

In turn, `Cc1[nH]c2cc(Cl)cc(Cl)c2c1CCN` [DCAI, 2-(4,6-dichloro-2-methyl-1h-indol-3-yl)ethanamine] returned a half-inhibitory concentration (IC50) of 158 ± 13 µM.

For orientation: IC50 means the midpoint of a concentration-inhibition curve. Lower therefore signals higher potency.
